{"source": "ChEMBL document CHEMBL1144021", "about": "“Molecular determinants of the anticonvulsant felbamate binding site in the N-methyl-D-aspartate receptor” (J Med Chem, 2008)", "key": {"[1]": {"experiment": "Ratio of Kapp for wild type NR2B receptor to Kapp for NR2B receptor S645A/T103A mutant"}, "[2]": {"experiment": "Ratio of Kapp for wild type NR2B receptor to Kapp for NR2B receptor ATD T233A mutant"}, "[3]": {"tested_on": "Glutamate receptor ionotropic, NMDA 2B (Homo sapiens), Q13224 [A651T]", "experiment": "Inhibition of NR2B receptor M3c A651T mutant expressed in Xenopus oocytes assessed as NMDA current at 0.5 mM relative to control", "assay_type": "cell-based", "conditions": "Oocyte"}, "[4]": {"experiment": "Ratio of Kapp for wild type NR2B receptor to Kapp for NR2B receptor M3c L643A mutant"}, "[5]": {"tested_on": "Glutamate receptor ionotropic, NMDA 2B (Homo sapiens), Q13224 [S546A]", "sequence (Q13224 whole entry S546A)": "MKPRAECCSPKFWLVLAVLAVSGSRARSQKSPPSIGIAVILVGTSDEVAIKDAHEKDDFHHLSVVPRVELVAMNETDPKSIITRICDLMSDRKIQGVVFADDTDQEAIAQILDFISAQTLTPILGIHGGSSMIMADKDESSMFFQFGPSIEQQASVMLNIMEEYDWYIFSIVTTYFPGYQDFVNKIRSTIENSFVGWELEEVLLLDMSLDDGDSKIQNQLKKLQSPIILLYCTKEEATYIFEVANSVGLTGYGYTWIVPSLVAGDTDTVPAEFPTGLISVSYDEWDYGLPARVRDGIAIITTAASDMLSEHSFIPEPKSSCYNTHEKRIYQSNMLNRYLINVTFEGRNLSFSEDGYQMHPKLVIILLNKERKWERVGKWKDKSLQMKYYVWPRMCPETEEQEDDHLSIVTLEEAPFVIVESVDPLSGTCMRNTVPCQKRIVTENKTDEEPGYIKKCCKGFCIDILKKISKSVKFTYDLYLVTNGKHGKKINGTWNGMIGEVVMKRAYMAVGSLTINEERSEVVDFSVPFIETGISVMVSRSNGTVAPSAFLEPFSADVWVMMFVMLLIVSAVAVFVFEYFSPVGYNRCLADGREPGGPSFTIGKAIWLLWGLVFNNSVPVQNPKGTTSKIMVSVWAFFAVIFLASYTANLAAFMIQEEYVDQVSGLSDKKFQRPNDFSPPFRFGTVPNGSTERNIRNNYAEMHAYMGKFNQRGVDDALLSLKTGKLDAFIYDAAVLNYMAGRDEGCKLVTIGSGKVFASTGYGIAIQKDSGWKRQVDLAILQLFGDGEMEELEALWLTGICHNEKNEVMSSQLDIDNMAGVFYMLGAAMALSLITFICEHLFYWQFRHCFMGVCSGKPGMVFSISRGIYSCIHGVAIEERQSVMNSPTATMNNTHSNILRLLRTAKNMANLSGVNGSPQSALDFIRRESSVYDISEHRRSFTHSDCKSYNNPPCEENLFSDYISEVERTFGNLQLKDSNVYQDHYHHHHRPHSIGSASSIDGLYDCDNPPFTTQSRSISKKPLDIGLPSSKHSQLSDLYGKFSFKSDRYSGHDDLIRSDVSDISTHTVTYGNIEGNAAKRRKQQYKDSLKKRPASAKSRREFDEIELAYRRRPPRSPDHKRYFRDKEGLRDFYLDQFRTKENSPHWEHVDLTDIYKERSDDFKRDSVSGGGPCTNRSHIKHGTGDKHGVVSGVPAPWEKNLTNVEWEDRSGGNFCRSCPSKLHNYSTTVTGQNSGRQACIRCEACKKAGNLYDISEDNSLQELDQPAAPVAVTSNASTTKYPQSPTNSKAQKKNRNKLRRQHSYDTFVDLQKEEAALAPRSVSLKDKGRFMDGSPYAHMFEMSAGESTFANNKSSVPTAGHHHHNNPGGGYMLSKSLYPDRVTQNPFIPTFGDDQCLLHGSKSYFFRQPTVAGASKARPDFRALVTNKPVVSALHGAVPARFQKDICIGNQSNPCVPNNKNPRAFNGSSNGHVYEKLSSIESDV", "experiment": "Inhibition of NR2B receptor Pre-M1 S546A mutant expressed in Xenopus oocytes assessed as NMDA current at 0.5 mM relative to control", "assay_type": "cell-based", "conditions": "Oocyte"}, "[6]": {"tested_on": "Glutamate receptor ionotropic, NMDA 2B (Homo sapiens), Q13224 [T544A]", "experiment": "Inhibition of NR2B receptor Pre-M1 T544A mutant expressed in Xenopus oocytes assessed as NMDA current at 0.5 mM relative to control", "assay_type": "cell-based", "conditions": "Oocyte"}, "[7]": {"tested_on": "Glutamate receptor ionotropic, NMDA 2B (Homo sapiens), Q13224 [Y646A]", "experiment": "Inhibition of NR2B receptor M3c Y646A mutant expressed in Xenopus oocytes assessed as NMDA current at 0.5 mM relative to control", "assay_type": "cell-based", "conditions": "Oocyte"}, "[8]": {"tested_on": "Glutamate receptor ionotropic, NMDA 2B (Homo sapiens), Q13224 [L643A,K234A]", "experiment": "Binding affinity to NR2B receptor L643A/K234A mutant"}, "[9]": {"tested_on": "Glutamate receptor ionotropic, NMDA 2B (Homo sapiens), Q13224 [E552A]", "sequence (Q13224 whole entry E552A)": "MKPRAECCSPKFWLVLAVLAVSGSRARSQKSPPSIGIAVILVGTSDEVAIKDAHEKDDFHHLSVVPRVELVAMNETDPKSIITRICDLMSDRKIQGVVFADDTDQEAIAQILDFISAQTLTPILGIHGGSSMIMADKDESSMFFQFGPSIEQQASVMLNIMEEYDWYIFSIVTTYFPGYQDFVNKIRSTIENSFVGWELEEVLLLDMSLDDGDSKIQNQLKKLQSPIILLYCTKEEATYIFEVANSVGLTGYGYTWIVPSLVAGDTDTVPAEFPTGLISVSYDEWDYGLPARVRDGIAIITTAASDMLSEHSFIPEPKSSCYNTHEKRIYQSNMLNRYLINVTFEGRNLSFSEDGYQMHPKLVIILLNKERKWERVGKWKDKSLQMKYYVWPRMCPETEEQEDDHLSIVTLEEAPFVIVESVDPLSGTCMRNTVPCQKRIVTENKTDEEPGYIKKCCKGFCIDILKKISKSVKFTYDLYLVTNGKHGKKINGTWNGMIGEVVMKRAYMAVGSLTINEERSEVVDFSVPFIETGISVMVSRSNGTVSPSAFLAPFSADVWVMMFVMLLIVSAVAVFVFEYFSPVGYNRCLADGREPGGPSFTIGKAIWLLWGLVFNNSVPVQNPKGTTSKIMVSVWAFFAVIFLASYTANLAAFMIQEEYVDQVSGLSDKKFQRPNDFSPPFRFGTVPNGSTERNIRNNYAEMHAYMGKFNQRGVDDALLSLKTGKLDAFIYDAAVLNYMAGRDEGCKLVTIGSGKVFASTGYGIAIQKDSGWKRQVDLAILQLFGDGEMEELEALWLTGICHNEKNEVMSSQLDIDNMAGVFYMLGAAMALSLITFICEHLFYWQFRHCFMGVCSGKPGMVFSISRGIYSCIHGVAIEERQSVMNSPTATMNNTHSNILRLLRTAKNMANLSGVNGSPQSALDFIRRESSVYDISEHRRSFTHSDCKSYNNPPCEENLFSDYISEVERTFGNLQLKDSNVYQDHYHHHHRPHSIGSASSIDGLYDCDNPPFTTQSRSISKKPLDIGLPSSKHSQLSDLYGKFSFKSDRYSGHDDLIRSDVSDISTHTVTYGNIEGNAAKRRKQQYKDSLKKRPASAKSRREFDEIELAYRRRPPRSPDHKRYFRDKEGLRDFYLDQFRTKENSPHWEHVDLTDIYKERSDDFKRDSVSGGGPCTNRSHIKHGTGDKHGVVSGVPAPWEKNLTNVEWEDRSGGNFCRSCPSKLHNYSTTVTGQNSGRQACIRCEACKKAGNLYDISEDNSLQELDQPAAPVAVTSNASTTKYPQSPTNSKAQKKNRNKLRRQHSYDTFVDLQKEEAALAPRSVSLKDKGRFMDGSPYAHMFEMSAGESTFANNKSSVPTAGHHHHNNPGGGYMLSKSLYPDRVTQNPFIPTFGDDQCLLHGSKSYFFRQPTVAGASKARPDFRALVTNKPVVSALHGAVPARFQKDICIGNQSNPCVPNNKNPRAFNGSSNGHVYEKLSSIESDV", "experiment": "Inhibition of NR2B receptor Pre-M1 E552A mutant expressed in Xenopus oocytes assessed as NMDA current at 0.5 mM relative to control", "assay_type": "cell-based", "conditions": "Oocyte"}, "[10]": {"biological_target": "Glutamate receptor ionotropic, NMDA 2B (Homo sapiens) (UniProt Q13224)", "experiment": "Inhibition of wild type NR2B receptor expressed in Xenopus oocytes assessed as NMDA current at 0.5 mM relative to control", "assay_type": "cell-based", "conditions": "Oocyte"}, "[11]": {"experiment": "Ratio of Kapp for wild type NR2B receptor to Kapp for NR2B receptor L643A/S645A mutant"}, "[12]": {"experiment": "Ratio of Kapp for wild type NR2B receptor to Kapp for ATD NR2B receptor F176A mutant"}, "[13]": {"tested_on": "Glutamate receptor ionotropic, NMDA 2B (Homo sapiens), Q13224 [T103A]", "experiment": "Inhibition of NR2B receptor ATD T103A mutant expressed in Xenopus oocytes assessed as NMDA current at 0.5 mM relative to control", "assay_type": "cell-based", "conditions": "Oocyte"}, "[14]": {"experiment": "Binding affinity to NR2B receptor […]/S645A mutant"}, "[15]": {"experiment": "Ratio of Kapp for wild type NR2B receptor to Kapp for NR2B receptor M3c T647A mutant"}, "[16]": {"experiment": "Ratio of Kapp for wild type NR2B receptor to Kapp for NR2B receptor S645A/I641A mutant"}, "[17]": {"experiment": "Ratio of Kapp for wild type NR2B receptor to Kapp for NR2B receptor M3c S645A mutant"}, "[18]": {"tested_on": "Glutamate receptor ionotropic, NMDA 2B (Homo sapiens), Q13224 [E106A]", "experiment": "Inhibition of NR2B receptor ATD E106A mutant expressed in Xenopus oocytes assessed as NMDA current at 0.5 mM relative to control", "assay_type": "cell-based", "conditions": "Oocyte"}, "[19]": {"tested_on": "Glutamate receptor ionotropic, NMDA 2B (Homo sapiens), Q13224 [N649A]", "experiment": "Inhibition of NR2B receptor M3c N649A mutant expressed in Xenopus oocytes assessed as NMDA current at 0.5 mM relative to control", "assay_type": "cell-based", "conditions": "Oocyte"}, "[20]": {"tested_on": "Glutamate receptor ionotropic, NMDA 2B (Homo sapiens), Q13224 [T233A]", "experiment": "Inhibition of NR2B receptor ATD T233A mutant expressed in Xenopus oocytes assessed as NMDA current at 0.5 mM relative to control", "assay_type": "cell-based", "conditions": "Oocyte"}, "[21]": {"tested_on": "Glutamate receptor ionotropic, NMDA 2B (Homo sapiens), Q13224 [N615A]", "experiment": "Inhibition of NR2B receptor M2 N615A mutant expressed in Xenopus oocytes assessed as NMDA current at 0.5 mM relative to control", "assay_type": "cell-based", "conditions": "Oocyte"}, "[22]": {"tested_on": "Glutamate receptor ionotropic, NMDA 2B (Homo sapiens), Q13224 [T103A,K234A]", "experiment": "Binding affinity to NR2B receptor T103A/K234A mutant"}, "[23]": {"tested_on": "Glutamate receptor ionotropic, NMDA 2B (Homo sapiens), Q13224 [I655A]", "experiment": "Inhibition of NR2B receptor post-M3 I655A mutant expressed in Xenopus oocytes assessed as NMDA current at 0.5 mM relative to control", "assay_type": "cell-based", "conditions": "Oocyte"}, "[24]": {"experiment": "Ratio of Kapp for wild type NR2B receptor to Kapp for NR2B receptor L643A/T103A mutant"}, "[25]": {"tested_on": "Glutamate receptor ionotropic, NMDA 2B (Homo sapiens), Q13224 [F653A]", "experiment": "Inhibition of NR2B receptor M3c F653A mutant expressed in Xenopus oocytes assessed as NMDA current at 0.5 mM relative to control", "assay_type": "cell-based", "conditions": "Oocyte"}, "[26]": {"tested_on": "Glutamate receptor ionotropic, NMDA 2B (Homo sapiens), Q13224 [F550A]", "experiment": "Inhibition of NR2B receptor Pre-M1 F550A mutant expressed in Xenopus oocytes assessed as NMDA current at 0.5 mM relative to control", "assay_type": "cell-based", "conditions": "Oocyte"}, "[27]": {"tested_on": "Glutamate receptor ionotropic, NMDA 2B (Homo sapiens), Q13224 [K234A]", "experiment": "Inhibition of NR2B receptor ATD K234A mutant expressed in Xenopus oocytes assessed as NMDA current at 0.5 mM relative to control", "assay_type": "cell-based", "conditions": "Oocyte"}, "[28]": {"experiment": "Ratio of Kapp for wild type NR2B receptor to Kapp for NR2B receptor T103A/K234A mutant"}, "[29]": {"tested_on": "Glutamate receptor ionotropic, NMDA 2B (Homo sapiens), Q13224 [S548A]", "experiment": "Inhibition of NR2B receptor Pre-M1 S548A mutant expressed in Xenopus oocytes assessed as NMDA current at 0.5 mM relative to control", "assay_type": "cell-based", "conditions": "Oocyte"}, "[30]": {"tested_on": "Glutamate receptor ionotropic, NMDA 2B (Homo sapiens), Q13224 [S645A,K234A]", "experiment": "Binding affinity to NR2B receptor S645A/K234A mutant"}, "[31]": {"tested_on": "Glutamate receptor ionotropic, NMDA 2B (Homo sapiens), Q13224 [Q656A]", "experiment": "Inhibition of NR2B receptor post-M3 Q656A mutant expressed in Xenopus oocytes assessed as NMDA current at 0.5 mM relative to control", "assay_type": "cell-based", "conditions": "Oocyte"}, "[32]": {"tested_on": "Glutamate receptor ionotropic, NMDA 2B (Homo sapiens), Q13224 [F176A]", "sequence (Q13224 whole entry F176A)": "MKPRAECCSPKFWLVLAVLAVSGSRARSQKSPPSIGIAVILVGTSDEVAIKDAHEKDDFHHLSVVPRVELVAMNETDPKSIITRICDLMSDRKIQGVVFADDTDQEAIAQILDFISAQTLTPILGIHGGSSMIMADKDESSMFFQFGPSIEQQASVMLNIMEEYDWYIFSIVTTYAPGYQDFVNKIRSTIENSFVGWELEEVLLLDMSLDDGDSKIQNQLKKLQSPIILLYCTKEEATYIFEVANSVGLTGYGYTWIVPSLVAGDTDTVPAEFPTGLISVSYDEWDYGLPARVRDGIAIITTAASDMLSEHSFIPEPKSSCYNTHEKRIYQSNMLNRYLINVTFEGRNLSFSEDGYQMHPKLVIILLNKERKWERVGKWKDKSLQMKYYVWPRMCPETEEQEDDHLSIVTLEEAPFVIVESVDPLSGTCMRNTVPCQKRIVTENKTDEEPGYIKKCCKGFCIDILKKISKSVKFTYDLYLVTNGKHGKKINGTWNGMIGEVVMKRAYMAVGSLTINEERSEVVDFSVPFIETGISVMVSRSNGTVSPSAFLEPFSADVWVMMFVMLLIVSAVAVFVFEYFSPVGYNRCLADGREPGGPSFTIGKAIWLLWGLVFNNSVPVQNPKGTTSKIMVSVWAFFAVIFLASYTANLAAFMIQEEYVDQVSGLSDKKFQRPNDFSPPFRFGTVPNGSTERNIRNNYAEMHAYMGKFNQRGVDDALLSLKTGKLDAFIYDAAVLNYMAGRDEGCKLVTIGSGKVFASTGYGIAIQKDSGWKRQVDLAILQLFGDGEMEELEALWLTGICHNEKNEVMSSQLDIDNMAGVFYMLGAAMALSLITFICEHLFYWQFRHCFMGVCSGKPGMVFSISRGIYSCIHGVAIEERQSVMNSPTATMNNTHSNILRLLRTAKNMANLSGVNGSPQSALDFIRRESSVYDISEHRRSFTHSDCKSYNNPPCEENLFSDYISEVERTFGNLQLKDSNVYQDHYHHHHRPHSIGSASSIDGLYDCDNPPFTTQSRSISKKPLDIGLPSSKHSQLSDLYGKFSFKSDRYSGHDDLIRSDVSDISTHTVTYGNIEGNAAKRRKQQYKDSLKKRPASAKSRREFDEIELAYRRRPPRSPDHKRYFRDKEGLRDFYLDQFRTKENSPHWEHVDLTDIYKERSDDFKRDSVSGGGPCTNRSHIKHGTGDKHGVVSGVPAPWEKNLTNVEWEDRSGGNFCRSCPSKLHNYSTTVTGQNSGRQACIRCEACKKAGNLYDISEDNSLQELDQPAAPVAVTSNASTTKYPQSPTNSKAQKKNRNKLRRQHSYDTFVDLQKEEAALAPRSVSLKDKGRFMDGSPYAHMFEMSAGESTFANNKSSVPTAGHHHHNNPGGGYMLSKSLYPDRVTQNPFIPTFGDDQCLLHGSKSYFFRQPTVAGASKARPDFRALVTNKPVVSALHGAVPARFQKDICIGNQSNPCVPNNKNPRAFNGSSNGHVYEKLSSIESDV", "experiment": "Inhibition of NR2B receptor ATD F176A mutant expressed in Xenopus oocytes assessed as NMDA current at 0.5 mM relative to control", "assay_type": "cell-based", "conditions": "Oocyte"}, "[33]": {"tested_on": "Glutamate receptor ionotropic, NMDA 2B (Homo sapiens), Q13224 [A652T]", "experiment": "Inhibition of NR2B receptor M3c A652T mutant expressed in Xenopus oocytes assessed as NMDA current at 0.5 mM relative to control", "assay_type": "cell-based", "conditions": "Oocyte"}, "[34]": {"experiment": "Ratio of Kapp for wild type NR2B receptor to Kapp for NR2B receptor ATD K234A mutant"}, "[35]": {"experiment": "Ratio of Kapp for wild type NR2B receptor to Kapp for NR2B receptor ATD T103A mutant"}}, "note": "Activity calls are given as the source filed them. The rule behind the calls is not given here.", "data": [{"compound": "NC(=O)OCC(COC(N)=O)c1ccccc1", "values": [{"measurement": "Ratio Ki(app)", "setting": "[1]", "result": 7.2}, {"measurement": "Ratio Ki(app)", "setting": "[2]", "result": 2.9}, {"measurement": "inhibition", "setting": "[3]", "result": 72, "unit": "%"}, {"measurement": "Ratio Ki(app)", "setting": "[4]", "result": 6.5}, {"measurement": "inhibition", "setting": "[5]", "result": 64, "unit": "%"}, {"measurement": "inhibition", "setting": "[6]", "result": 69, "unit": "%"}, {"measurement": "inhibition", "setting": "[7]", "result": 74, "unit": "%"}, {"measurement": "Kapp", "setting": "[8]", "result": 6.33, "unit": "mM"}, {"measurement": "inhibition", "setting": "[9]", "result": 77, "unit": "%"}, {"measurement": "inhibition", "setting": "[10]", "result": 68, "unit": "%"}, {"measurement": "Ratio Ki(app)", "setting": "[11]", "result": 7.7}, {"measurement": "Ratio Ki(app)", "setting": "[12]", "result": 3.2}, {"measurement": "inhibition", "setting": "[13]", "result": 85, "unit": "%"}, {"measurement": "Kapp", "setting": "[14]", "result": 7.04, "unit": "mM"}, {"measurement": "Ratio Ki(app)", "setting": "[15]", "result": 7.5}, {"measurement": "Ratio Ki(app)", "setting": "[16]", "result": 5.1}, {"measurement": "Ratio Ki(app)", "setting": "[17]", "result": 4.9}, {"measurement": "inhibition", "setting": "[18]", "result": 74, "unit": "%"}, {"measurement": "Activity", "setting": "[19]", "result": "inactive"}, {"measurement": "inhibition", "setting": "[20]", "result": 84, "unit": "%"}, {"measurement": "inhibition", "setting": "[21]", "result": 66, "unit": "%"}, {"measurement": "Kapp", "setting": "[22]", "result": 4.14, "unit": "mM"}, {"measurement": "inhibition", "setting": "[23]", "result": 76, "unit": "%"}, {"measurement": "Ratio Ki(app)", "setting": "[24]", "result": 5.8}, {"measurement": "Activity", "setting": "[25]", "result": "inactive"}, {"measurement": "inhibition", "setting": "[26]", "result": 62, "unit": "%"}, {"measurement": "inhibition", "setting": "[27]", "result": 85, "unit": "%"}, {"measurement": "Ratio Ki(app)", "setting": "[28]", "result": 4.8}, {"measurement": "inhibition", "setting": "[29]", "result": 76, "unit": "%"}, {"measurement": "Kapp", "setting": "[30]", "result": 7.1, "unit": "mM"}, {"measurement": "inhibition", "setting": "[31]", "result": 70, "unit": "%"}, {"measurement": "inhibition", "setting": "[32]", "result": 84, "unit": "%"}, {"measurement": "inhibition", "setting": "[33]", "result": 83, "unit": "%"}, {"measurement": "Ratio Ki(app)", "setting": "[34]", "result": 4.9}, {"measurement": "Ratio Ki(app)", "setting": "[35]", "result": 4.8}]}]}
